Measurements taken from patent US20240277658A1, “NLRP3 ACTIVATORS FOR USE IN THE TREATMENT OF INFECTIOUS DISEASES OR CANCER BY ACTIVATING NLRP3 INFLAMMASOME” (ALBERT-LUDWIGS-UNIVERSITÄT FREIBURG, priority 2020, published 2024).
“And” between values parts separate entries of the source, which are not always exact repeats. Identical values can stand only once.

Assays:
BMDCs = experiment: LDH release (lytic cell death, pyroptosis) from LPS-primed BMDCs; format: cell-based, mouse; conditions: 100 μM; for Average (% positive control): LDH release, positive control nigericin 5 μM
How it was run: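 Mouse BMDCs (7-9 days differentiated, GM-CSF) primed with 50 ng ml^−1 E. coli K12 LPS for 3 hours, then exposed 3 hours to compounds (50 μM unless indicated) or activators (nigericin 5 μM; R837, CL097 100 μM). Lytic death measured as LDH release by colorimetric assay, triplicate wells.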

[1] = tested on: mitochondrial respiration; conditions: Groß et al., Immunity 2016; cited from earlier work
TLR7/TLR8 = conditions: background statement; cited from earlier work
NLRP3 inflammasome = target: T1, NLRP3 inflammasome (Mus musculus, UniProt Q8R4B8); experiment: IL-1β release from LPS-primed BMDCs (ELISA) as readout of NLRP3 inflammasome activation; format: cell-based; conditions: 100 μM; for Average IL-1β / IL-1β: LPS-primed BMDCs; for Average (% positive control): IL-1β release, positive control nigericin 5 μM; for IL-1β: single replicates
T1 construct: endogenous in cells; host or cells: primary mouse bone marrow-derived dendritic cells (BMDCs), LPS-primed
T1 sequence (Q8R4B8 whole entry): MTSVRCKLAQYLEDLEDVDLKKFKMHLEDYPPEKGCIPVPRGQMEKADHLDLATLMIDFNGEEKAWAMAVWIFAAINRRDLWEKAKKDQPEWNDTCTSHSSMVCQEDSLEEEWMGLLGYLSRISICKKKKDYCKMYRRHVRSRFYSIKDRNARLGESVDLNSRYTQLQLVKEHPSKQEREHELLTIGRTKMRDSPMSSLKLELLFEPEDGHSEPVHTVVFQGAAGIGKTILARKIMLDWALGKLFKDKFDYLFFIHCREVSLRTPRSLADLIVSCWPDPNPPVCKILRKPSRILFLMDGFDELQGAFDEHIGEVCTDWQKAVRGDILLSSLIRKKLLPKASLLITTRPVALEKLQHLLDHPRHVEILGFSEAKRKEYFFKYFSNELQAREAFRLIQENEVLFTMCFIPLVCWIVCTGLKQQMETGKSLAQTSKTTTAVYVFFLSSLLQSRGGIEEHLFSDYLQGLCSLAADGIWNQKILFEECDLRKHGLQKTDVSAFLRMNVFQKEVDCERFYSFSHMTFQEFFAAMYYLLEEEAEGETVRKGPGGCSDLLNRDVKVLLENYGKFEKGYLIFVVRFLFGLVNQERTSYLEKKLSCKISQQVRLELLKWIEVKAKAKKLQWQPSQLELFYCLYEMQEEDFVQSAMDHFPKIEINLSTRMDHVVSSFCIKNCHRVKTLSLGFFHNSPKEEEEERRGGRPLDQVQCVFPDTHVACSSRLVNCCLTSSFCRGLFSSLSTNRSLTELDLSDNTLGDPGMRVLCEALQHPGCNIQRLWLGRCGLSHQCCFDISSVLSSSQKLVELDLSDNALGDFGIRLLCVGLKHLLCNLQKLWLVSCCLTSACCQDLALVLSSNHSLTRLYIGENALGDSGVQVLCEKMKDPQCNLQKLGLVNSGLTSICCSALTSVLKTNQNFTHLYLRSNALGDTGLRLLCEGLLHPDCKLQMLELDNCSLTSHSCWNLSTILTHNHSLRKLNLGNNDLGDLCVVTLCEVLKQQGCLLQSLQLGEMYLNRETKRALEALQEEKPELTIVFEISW
How it was run: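 NLRP3 inflammasome activation was read out as IL-1β released into the supernatant, measured by ELISA. Murine BMDCs were primed with LPS (50 ng ml^−1, 3 hours), then incubated with compounds for 3 hours, with each condition run in three technical replicates. Nigericin at 5 μM acted as the positive control activator, and IL-1β release was also expressed as a percentage of that control.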

SMILES | Average (% positive control) (BMDCs) | cytotoxicity at 100 µM (BMDCs; Mus musculus, BMDC, LPS-primed BMDCs, read-out: Average LDH release (% of max.)) [%] | inhibition of cellular respiration (mitochondrial electron transport chain) [1] | activation of toll-like receptor-7 (TLR7) and/or TLR8 (TLR7/TLR8) | Average IL-1β (NLRP3 inflammasome) [ng/mL] | Average (% positive control) (NLRP3 inflammasome) | IL-1β (NLRP3 inflammasome; listed as R837) | Average LDH release (% of max.) (BMDCs; LPS-primed BMDCs) | LDH release (% of max.) (BMDCs; single replicates, LPS-primed BMDCs) | IL-1β (NLRP3 inflammasome)
CC(C)Cn1cnc2c(N)nc3ccccc3c21 [imiquimod, reference compound] | 35.494 | 26 | inhibit cellular respiration | activate | 2.376 | 33.144 | 5.472 ng/mL and 4.151 ng/mL and 1.552 ng/mL and 1.212 ng/mL and 0.958 ng/mL and 0.911 ng/mL | – | – | –
CCOCc1nc2c([nH]1)c(N)nc1ccccc12 [CL097, reference compound] | 93.083 | – | inhibit cellular respiration | activate | 8.570 | 119.560 | – | 68.096 % of max. | 56.511 % of max. and 69.145 % of max. and 62.611 % of max. and 76.051 % of max. and 68.018 % of max. and 76.242 % of max. | 7.355 ng/mL and 8.020 ng/mL and 8.660 ng/mL and 8.522 ng/mL and 9.540 ng/mL and 9.324 ng/mL
